Results taken from patent US20100310518A1, “Combinations of Flubendiamide and Beneficial Species” (Bayer CropScience AG, priority 2009, published 2010).

Tests used:
Plutella xylostella = Plutella xylostella test (drench application on rock wool); type: in vivo; settings: for Kill in % after 7^d: 1 mg of ai/plant, drench, cabbage plants
Description: To produce a suitable preparation of active compound, 1 part by weight of active compound is mixed with the stated amounts of solvent and emulsifier, and the concentrate is diluted with water to the desired concentration.
Cabbage plants (Brassica oleracea) are watered with an active compound preparation of the desired concentration and infected with larvae of the diamondback moth (Plutella xylostella).
After the desired period of time, the kill of the pest in % is determined 100% means that all caterpillars have been killed; 0% means that none of the caterpillars have been killed.

Myzus persicae = Myzus persicae test (drench application) on cabbage plants, with predatory bugs added; type: in vivo; settings: flubendiamide alone, 1 mg of ai/l soil, cabbage plants (Brassica oleracea)
Excerpt: The expected action for a given combination of two active compounds can be calculated as follows, using the formula of S. R. Colby, Weeds 15 (1967), 20-22:
• X is the kill rate, expressed as % of the untreated control, when employing active compound A at an application rate of m g/ha, m mg of ai/plant or in a concentration of m ppm, • Y is the kill rate, expressed as % of the untreated control, when employing the beneficial species at an application rate of n animals or n units, and • E is the kill rate, expressed as % of the untreated control, when employing active compound
A and beneficial species B at an application rate of m ppm, m mg of ai/plant or g/ha and n animals or units,
If the actual insecticidal or acaricidal kill rate exceeds the calculated value, the kill of the combination is superadditive, i.e. a synergistic effect is present. In this case, the actually observed kill rate must exceed the value calculated using the above formula for the expected kill rate (E). […]
After the application, the predatory bugs (Macrolophus caliginosus) are added in a defined amount. After the desired period of time, the kill of the pest in % is determined 100% means that all of the aphids have been destroyed; 0% means that none of the aphids have been destroyed.
The kill rates determined are entered into Colby's formula (see above).

## Cc1cc(C(F)(C(F)(F)F)C(F)(F)F)ccc1NC(=O)c1cccc(I)c1C(=O)NC(C)(C)CS(C)(=O)=O [flubendiamide, 3-iodo-N′-(2-mesyl-1,1-dimethylethyl)-N-{4-[1,2,2,2-tetrafluoro-1-(trifluoromethyl)ethyl]-o-tolyl}phthalamide]
Plutella xylostella; applied to soil-less substrates
  systemic efficacy: surprisingly good systemic efficacy
Plutella xylostella; on rock wool
  Kill in % after 7^d: 97%
Plutella xylostella; on sandy loam (prior art)
  Kill in % after 7^d: 40%
Myzus persicae
  Kill in % after 4^h: 45%
